Where “and” joins values, the source holds several entries; their conditions need not be identical. Equal values may be shown once.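 Step 1: Grow cells in 96-well plates. Step 2: Expose to compound for 48 hours at 5 concentrations. Step 3: Interpolate endpoints linearly; if unreached, use highest concentration. At the GI50, growth is halved. At the TGI there is no net growth.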
Experiments:
Test in all cases: inhibition of tumour cell growth, NCI panel, 48 h
NCI/ADR-RES ovarian = tested on: NCI/ADR-RES ovarian
HT29 colon = tested on: HT29 colon
OVCAR-4 ovarian = tested on: OVCAR-4 ovarian
OVCAR-5 ovarian = tested on: OVCAR-5 ovarian
HCT-15 colon = tested on: HCT-15 colon
RPMI-8226 leukemia = tested on: RPMI-8226 leukemia
MALME-3M melanoma = tested on: MALME-3M melanoma
SF-295 CNS = tested on: SF-295 CNS
CAKI-1 renal = tested on: CAKI-1 renal
LOX IMVI melanoma = tested on: LOX IMVI melanoma

Compound | GI50 (NCI/ADR-RES ovarian) | TGI (NCI/ADR-RES ovarian) [µM] | GI50 (HT29 colon) [µM] | TGI (HT29 colon) [µM] | GI50 (OVCAR-4 ovarian) | TGI (OVCAR-4 ovarian) [µM] | GI50 (OVCAR-5 ovarian) [µM] | TGI (OVCAR-5 ovarian) [µM] | GI50 (HCT-15 colon) | TGI (HCT-15 colon) [µM] | GI50 (RPMI-8226 leukemia) [µM] | TGI (RPMI-8226 leukemia) | GI50 (MALME-3M melanoma) [µM] | TGI (MALME-3M melanoma) [µM] | GI50 (SF-295 CNS) [µM] | TGI (SF-295 CNS) [µM] | TGI (CAKI-1 renal) [µM] | TGI (LOX IMVI melanoma) | GI50 (LOX IMVI melanoma) [µM] | GI50 (CAKI-1 renal) [µM]
Cc1cc(N2CCSCC2)nc(NC2CCCC(Nc3ccnc4cc(Cl)ccc34)C2)n1 (stereo unspecified) | 2.01 µM | 5.15 | 1.61 | 3.98 | 1.61 µM | 5.13 | 2.88 | 14.1 | 1.24 µM | 2.77 | 1.64 | 4.39 µM | 1.8 | 3.43 | 1.7 | 3.27 | – | – | – | –
COc1cccc(C2c3cc4c(cc3OC(N3CCCC3)C2C)OCO4)c1O (stereo unspecified) | – | 47.1 | – | 14.7 | – | > 94.2 | – | > 100 | – | 38.4 | – | 27.9 µM | – | 58.2 | – | 15.4 | 68.3 | > 66.2 µM | – | –
CCN(CC)CCCNC(=O)c1c2c(n3ccccc13)C(=O)c1ncccc1C2=O | 3.02 µM | 23.4 | 0.248 | 1.54 | 0.164 µM | 0.903 | 1.18 | 4.9 | 0.935 µM | 2.54 | 3.21 | > 100 µM | 0.0823 | 0.425 | 1.07 | 6.29 | – | 1.8 µM | 0.391 | –
O=C1/C(=C\c2ccccn2)c2ccccc2N1c1c(Cl)cccc1Cl | 2.51 µM | 6.95 | 2.53 | 5.75 | 3.14 µM | 26.8 | 2.05 | 4.81 | 2.11 µM | 5.3 | 2.8 | > 22.4 µM | 1.74 | 4.89 | 1.96 | 5.72 | – | 3.21 µM | 1.68 | 1.83
O=c1c(Cl)c(Cl)c(=O)c2sc3cc(Cl)ccc3[nH]c1=2 | – | 20.1 | – | > 100 | – | 22 | – | > 100 | – | > 100 | – | 17.2 µM | – | > 100 | – | > 100 | > 100 | – | – | –
CC1(CCC(=O)OC2CCCCC2)OCCO1 | – | > 100 | – | > 100 | – | > 100 | – | > 100 | – | > 100 | – | > 100 µM | – | > 100 | – | > 100 | > 100 | > 100 µM | – | –
CC(C)(C)[Si](C)(C)OC1[C@@H](O[Si](C)(C)C(C)(C)C)[C@@H](CNC(=O)NC(=O)CCl)O[C@H]1n1cnc2c(NC(=O)Nc3ccccc3)ncnc21 (stereo partly specified) | 1.24 µM | 8.03 | 0.33 | 1.05 | 0.7 µM | 1.57 | 0.911 | 2.08 | 1.77 µM | 6.56 | 0.167 | 0.682 µM | 0.796 | 1.62 | 0.235 | 0.922 | 2.82 | 0.18 µM | 0.0829 | 0.989
C=C1CCC2C(C)(COC(=O)CC)C(OC(=O)CC)CCC2(C)C1C/C=C1/C(=O)OCC1OC(=O)CC (stereo unspecified) | 2.84 µM | 10.5 | 0.987 | 2.24 | 2.33 µM | 6.9 | 2.45 | 5.35 | 1.96 µM | 6 | 3.77 | > 100 µM | 2.08 | 3.99 | 1.7 | 3.99 | 3.37 | 3.01 µM | 1.51 | 1.65
O=Cc1ccc(-c2ccc(-c3nc4ccccc4o3)cc2)o1 | 18.3 µM | 63.8 | 53.2 | > 100 | > 100 µM | > 100 | 29 | 95.2 | 19.7 µM | 53.4 | – | – | 24.6 | 65 | 28 | 85 | 65.9 | 60.2 µM | 23 | 22.6
Cc1cc(CC(C)CC(C)(C)C)n(O)c(=O)c1 (stereo unspecified) (tested in a mixture with another compound) | 0.373 µM | 4.02 | 3.91 | 17.5 | 0.358 µM | > 84.4 | 0.689 | > 58 | 0.459 µM | > 100 | 0.365 | 8.06 µM | 0.482 | 13 | 0.447 | 18.5 | 9.82 | 10.9 µM | 0.312 | 1.76
Nc1ccn(C2OC(COC(=O)C34CC5CC(CC(C5)C3)C4)C(O)C2O)c(=O)n1 (stereo unspecified) | – | > 100 | – | > 100 | – | > 100 | – | > 100 | – | > 100 | – | > 100 µM | – | > 100 | – | > 100 | > 100 | > 100 µM | – | –
CN(Cc1cc(Cl)cc(Cl)c1)CC(C(=O)c1ccccc1)c1ccccc1 (stereo unspecified) | – | 5.45 | – | 7.91 | – | 12.4 | – | 19.1 | – | 1.84 | – | > 100 µM | – | 24 | – | > 100 | 9.07 | 5.91 µM | – | –
Cc1nc(N2CCC3(CC2)CO[C@@H](C)[C@H]3N)c(CO)nc1Sc1ccnc(N)c1Cl | 47.3 µM | > 100 | > 100 | > 100 | 22.4 µM | > 100 | > 100 | > 100 | > 100 µM | > 100 | 49.3 | > 100 µM | > 100 | > 100 | 26.6 | > 100 | > 100 | > 100 µM | 72.4 | 0.194
COc1ccc(-c2c3c(n(C4OC(COC(C)=O)C(OC(C)=O)C(OC(C)=O)C4OC(C)=O)c(=S)c2C#N)CC(C)(C)CC3=O)cc1 (stereo unspecified) | 41.6 µM and > 100 µM | > 100 | – | > 100 | 45.4 µM and > 100 µM | > 100 | – | > 100 | 40.7 µM and > 100 µM | > 100 | – | 72.1 µM and > 100 µM | – | > 100 | – | > 100 | > 100 | 97.5 µM and 77.2 µM | – | –
OCC(O)c1nc2ccc3[nH]ncc3c2c2c1CCCC2 (stereo unspecified) | 1.34 µM | 4.51 | 1.27 | > 50 | 2.49 µM | > 50 | 1.53 | > 50 | 1.5 µM | > 50 | – | – | 1.67 | 4.82 | 1.62 | > 50 | > 50 | 3.85 µM | 1.1 | 0.971
